One experiment relates to active GLP-1. The experiment is described as follows: Active GLP-1 during an oral glucose tolerance test (OGTT) and at 24 h in lean male SPD rats. The experiment is classed as in vivo, Sprague-Dawley (SPD) rats. The procedure:
(§1) Evaluation of the Acute Effects of Compound a and Compound B Upon Active GLP-1 wconcentrations during an oral glucose tolerance test (OGTT) and at 24 h in lean male SPD Rats
(§2) To establish the acute effects of oral administration of Compound A and Compound B upon active GLP-1 and insulin concentrations, lean (about 300 g) male Sprague-Dawley (SPD) rats were divided into groups (n=6-8) and fed 74 and 84 mg/kg body weight of Compound A or Compound B respectively, either with or without concurrent administration of a dipeptidyl peptidase 4 (DPP-4) inhibitor 60 minutes prior to an oral glucose tolerance test (OGTT) as outlined below. Parallel groups receiving either corn oil alone (corn oil+vehicle, n=10) or corn oil and a DPP-4 inhibitor (“DPP-4 i”) (corn oil+(DPP-4 i), n=10) were included as controls. The DPP-4 inhibitor was linagliptin.
(§3) A second oral dose of 74 and 84 mg/kg bodyweight of Compound A or Compound B respectively was administered at 240 minutes and ad lib feeding was initiated. A second dose of DPP-4 inhibitor was administered at 480 mins prior to lights out. Blood samples were collected at 24 h for measurement of active GLP-1 and insulin. All values are mean, figures depict mean values (SEM).

The test system of experiment [1] is atherogenic lipids. To be noted: humans; cited from earlier work.
Experiment [2] relates to ob/ob mice, T2DM rodent model. The experiment is described as follows: Glucose tolerance after 21-day treatment in high-fat diet fed ob/ob mice. Type of experiment: in vivo. To be noted: 112 mg/kg once daily via diet, 21 days. On the procedure:
This study was carried out to assess the effects of chronic treatment with Compound B or Compound A on glucose tolerance in a T2DM rodent model.
For assessing the effects of Compound A, ob/ob mice were fed a high-fat diet (comprising 2% cholesterol, 40% fat (containing 18% trans-fatty acids), 20% fructose) for 15 weeks starting at age 5 weeks. […] After 21 days the mice received a 2 g/kg oral glucose load. After the oral glucose load, plasma glucose was measured at multiple time points from 0-240 minutes.

Experiment [3] has as its system atherogenic lipids. To be noted: APOE*3.CETP mice; cited from earlier work.
A further experiment has as its system plasma insulin. The experiment is described as follows: Plasma insulin at 24 h after OGTT in lean male SPD rats. The experiment is classed as in vivo, Sprague-Dawley (SPD) rats. To be noted: non-significant. The procedure: as §1, §2, §3
Experiment [4] relates to ob/ob mice, rodent model of T2DM. The experiment is described as follows: Oral glucose (2 g/kg) tolerance test after 5 weeks of treatment in ob/ob mice. Type of experiment: in vivo. The settings on record: 15, 45 and 135 mg/kg bw/d. The procedure: Mice were fed a standard low-fat (7% w/w fat) diet. After 4-weeks, the mice were fasted for 4 hours and the effects of Compound A were assessed. Assessment of the effects of Compound A included basal levels of blood glucose, plasma insulin, HbA1c levels, and homeostatic model assessment of insulin resistance (HOMA-IR). HOMA-IR is an assessment of insulin resistance and is calculated by the following formula: fasting insulin (micro U/L)×fasting glucose […]/22.5.
After 5 weeks, an oral glucose (2 g/kg) tolerance test was performed after a 4 hour fast.

Like-named read-outs stand apart in the source and are kept apart here.

The text below walks through data of US20210290576A1, “STRUCTURALLY MODIFIED FATTY ACIDS FOR IMPROVING GLYCEMIC CONTROL AND TREATING INFLAMMATORY BOWEL DISEASE” (NORTHSEA THERAPEUTICS B.V., priority 2018, published 2021).

`CC/C=C\C/C=C\C/C=C\C/C=C\C/C=C\CCCCOC(CC)C(=O)O` (stereo not shown) [Compound A, 2-(((5Z,8Z,11Z,14Z,17Z)-icosa-5,8,11,14,17-pentaen-1-yl)oxy)butanoic acid]: in the experiment with active GLP-1 (in combination with DPP4 inhibitor (linagliptin), Compound A 74 mg/kg, Compound B 84 mg/kg, two oral doses), the “active GLP-1 concentrations at 24 h versus corn oil+vehicle” value is “significantly (p<0.05) increased”. Besides, the atherogenic lipids result with atherogenic lipids [1] and in the experiment with atherogenic lipids [3] was “significantly reduce atherogenic lipids” throughout. Moreover, the “glucose tolerance compared to vehicle” value in experiment [2] (2 g/kg oral glucose load) is “significantly improved glucose tolerance from 15 minutes through 90 minutes”. Besides, the AUC glucose entry in experiment [2] (p<0.01) was “significantly reduced”. For the same compound, the “increase of plasma insulin concentrations at 24 h versus corn oil+vehicle and corn oil+DPP4 inhibitor” value with plasma insulin (compound alone) and in the experiment on plasma insulin (in combination with DPP4 inhibitor (linagliptin)) was 25% each time. The “glucose levels in oral glucose tolerance test” value in experiment [4] was “dose-dependent response in lowering glucose levels”.
For `CC#CCn1c(N2CCC[C@@H](N)C2)nc2c1c(=O)n(Cc1nc(C)c3ccccc3n1)c(=O)n2C` [DPP4 inhibitor, linagliptin, reference compound], in the experiment on active GLP-1 (corn oil+DPP4 inhibitor alone), the “active GLP-1 (AUC 0-60 mins) versus corn oil alone” value is “no significant effect” and the “active GLP-1 concentrations at 24 h versus corn oil alone” value is on record as “no significant effect”.
